According to paper PMC3836994, “Killer Bee Molecules: Antimicrobial Peptides as Effector Molecules to Target Sporogonic Stages of Plasmodium” (PLoS Pathogens, 2013):
No end group written: not given here.

Columns and labels:
[1] = system: P. falciparum; assay: Cultured P. falciparum gametocytes membrane-fed to An. gambiae (oocyst prevalence and intensity); type: in vivo, Plasmodium falciparum; conditions: 50 µM; for Oocyst intensity (mean number of oocysts per gut, range in parentheses), peptide / Oocyst prevalence (oocyst positive mosquitoes), peptide: cultured gametocytes, An. gambiae
Method: P. falciparum NF54 gametocytes were produced through large-scale automated culture at the Pasteur Institute, Paris, [69]. Gametocytes were grown in 10 ml RPMI 1640 medium (Invitrogen), supplemented with 25 mM HEPES and L-glutamine, 10% heat-inactivated human serum and hypoxanthine (20 mg/L) under a constant gas supply (5% CO2, 1% O2, 94% N2). Fresh red blood cells (RBCs) were added to obtain a 7% haematocrit. Fourteen days after initiating the culture, gametocyte maturity was assessed on thin Giemsa-stained blood smears, and male gametocyte maturity verified by exflagellation tests. Gametocyte cultures were centrifuged for 5 min at 1500 rpm and the ∼500–600 µl pellet resuspended in fresh RBCs and AB human serum to give a final haematocrit of 40%.
Blood containing mature gametocytes (475 µl) was added to 25 µl of the test AMP (50 µM final concentration). Peptides were replaced by 25 µl of sterile deionized water for each control. The blood/parasite/peptide mixture was placed in a Hemotek membrane feeder, previously warmed to 37°C. For each feed, 70 to 100 nulliparous female An. gambiae mosquitoes were left to feed in the dark for 15 min and only fully engorged females were transferred to small cages and provided with 10% sucrose containing 0.05% PABA. After 8 days, 30 midguts were dissected and stained with bromo fluorescein for the detection of oocysts.

[2] = system: P. berghei; assay: P. berghei infections in Anopheles stephensi (oocyst prevalence and intensity); type: in vivo, Plasmodium berghei; conditions: for Prevalence (proportion of infected mosquitoes), peptide: 50 µM peptide in gametocytaemic mouse blood fed to An. stephensi; for Intensity (mean number of oocysts, range in parentheses), peptide: 50 µM peptide, An. stephensi
Method: To assess the effects of AMPs on parasites in vivo, mouse blood containing P. berghei gametocytes was obtained by cardiac puncture and 475 µl was rapidly mixed with 25 µl (50 µM final concentration) of AMP. This mixture was fed to 100 nulliparous 3–5 day old female An. stephensi. A further 475 µl of blood from the same infection was mixed with 25 µl of distilled water to act as a control. Mosquitoes were maintained at 19°C for optimum parasite development. Between 30 and 50 mosquitoes were dissected after 10 days. Mosquito wing length, numbers of retained eggs and oocysts were recorded in triplicate experiments carried out on different mosquito cohorts.

Sequence	Oocyst intensity (mean number of oocysts per gut, range in parentheses), peptide ([1]; Replicate 1)	Oocyst prevalence (oocyst positive mosquitoes), peptide ([1]; Replicate 1, dissected after 8 days)	Oocyst intensity (mean number of oocysts per gut, range in parentheses), peptide ([1]; Replicate 2)	Oocyst prevalence (oocyst positive mosquitoes), peptide ([1]; Replicate 2)	Oocyst intensity (mean number of oocysts per gut, range in parentheses), peptide ([1]; Replicate 3)	Oocyst prevalence (oocyst positive mosquitoes), peptide ([1]; Replicate 3)	Average reduction of intensity of infection ([1]; over three replicates) [%]	Average reduction of prevalence ([1]; over three replicates) [%]	Prevalence (proportion of infected mosquitoes), peptide ([2]; Replicate 1)	Intensity (mean number of oocysts, range in parentheses), peptide ([2]; Replicate 1)	Prevalence (proportion of infected mosquitoes), peptide ([2]; Replicate 2)	Intensity (mean number of oocysts, range in parentheses), peptide ([2]; Replicate 2)	Prevalence (proportion of infected mosquitoes), peptide ([2]; Replicate 3)	Intensity (mean number of oocysts, range in parentheses), peptide ([2]; Replicate 3)
AGYLLGKINLKALAALAKKILGGAGYLLGKINLKALAALAKKIL [TP10 dimer, TP10 (dimer)]	<1 (0–2)	17% (30)	0	0% (30)	2 (0–14)	37% (30)	82	60	56% (50)	2 (0–84)	66% (50)	4 (0–67)	56% (50)	2 (0–13)
KFPKFRRGIPFLFVGPSGKFPKFRRGIPFLFV [Vida 3 dimer]									33% (40)	1 (0–6)	80% (50)	37 (0–271)	76% (50)	4 (0–67)
